Legend:
rat P2X7 = rat P2X7 (Rattus norvegicus (Rat), UniProt Q64663); assay: Rat P2X7 functional assay (Ca2+ influx, Fluo-4, FDSS); format: cell-based; settings: HEK293 cells stably expressing rat P2X7; BzATP final 10 microM; 7-point dose-response; read-out: Antagonistic activities with respect to the rat P2X7 receptor (IC50)
Method in brief: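 IC50 derived from 7-point dose-response in duplicate, measuring inhibition of BzATP-evoked (final 10 microM) intracellular Ca2+ increase by Fluo-4 fluorescence on FDSS. Rat P2X7-HEK293 cells were exposed to compound for 10 min in the dark beforehand.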

human P2X7 = human P2X7 (Homo sapiens (Human), UniProt Q99572); assay: Human P2X7 functional assay (Ca2+ influx, Fluo-4, FDSS); format: cell-based; settings: antagonistic activity with respect to the human P2X7 receptor; BzATP final concentration 80 microM
Sequence of human P2X7 (Q99572 whole entry): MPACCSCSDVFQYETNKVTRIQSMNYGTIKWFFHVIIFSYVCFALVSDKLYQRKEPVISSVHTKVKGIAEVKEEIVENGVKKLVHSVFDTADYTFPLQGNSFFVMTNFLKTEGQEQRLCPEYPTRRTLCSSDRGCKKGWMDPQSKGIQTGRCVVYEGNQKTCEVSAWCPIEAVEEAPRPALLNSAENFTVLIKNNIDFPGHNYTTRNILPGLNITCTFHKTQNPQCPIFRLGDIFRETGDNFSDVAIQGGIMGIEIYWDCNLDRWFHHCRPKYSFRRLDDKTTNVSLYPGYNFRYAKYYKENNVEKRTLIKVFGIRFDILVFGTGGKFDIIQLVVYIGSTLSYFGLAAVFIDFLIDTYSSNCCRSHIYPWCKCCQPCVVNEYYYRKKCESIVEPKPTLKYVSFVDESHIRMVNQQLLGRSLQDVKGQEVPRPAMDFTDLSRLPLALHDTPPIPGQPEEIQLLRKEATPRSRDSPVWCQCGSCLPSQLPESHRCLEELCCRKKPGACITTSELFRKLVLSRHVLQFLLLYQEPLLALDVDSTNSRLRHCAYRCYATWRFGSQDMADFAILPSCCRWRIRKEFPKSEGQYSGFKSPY
Method in brief: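 Ca2+ influx was triggered with BzATP (80 μM final) after a 10-min room-temperature compound preincubation and monitored with Fluo-4 (ex 480/em 540 nm) on FDSS. The cells were HEK293 stably carrying FLAG-tagged human P2X7. Duplicate-averaged 7-point dose-responses gave IC50s.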

Sequence of rat P2X7 (Q64663 whole entry): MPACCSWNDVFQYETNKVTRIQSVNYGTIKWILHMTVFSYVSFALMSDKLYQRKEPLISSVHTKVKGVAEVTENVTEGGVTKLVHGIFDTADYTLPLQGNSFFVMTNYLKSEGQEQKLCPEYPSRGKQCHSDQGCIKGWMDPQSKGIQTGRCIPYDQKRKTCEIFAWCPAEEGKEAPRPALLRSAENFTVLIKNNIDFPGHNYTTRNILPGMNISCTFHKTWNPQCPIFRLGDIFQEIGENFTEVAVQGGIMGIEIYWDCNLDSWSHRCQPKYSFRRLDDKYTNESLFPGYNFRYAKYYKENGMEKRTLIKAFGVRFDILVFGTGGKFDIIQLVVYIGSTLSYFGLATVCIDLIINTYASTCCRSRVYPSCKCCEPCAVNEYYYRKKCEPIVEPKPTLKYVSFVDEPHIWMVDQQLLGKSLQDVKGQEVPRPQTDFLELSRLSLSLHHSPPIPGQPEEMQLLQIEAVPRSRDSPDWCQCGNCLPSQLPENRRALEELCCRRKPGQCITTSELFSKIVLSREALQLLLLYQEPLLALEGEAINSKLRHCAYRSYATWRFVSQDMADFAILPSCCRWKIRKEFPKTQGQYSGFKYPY

IC50 (rat P2X7)	IC50 (human P2X7)	Structure (SMILES)
< 1000 nM	101 to 300 nM	C[C@H](NC(=O)[C@]1(F)CC[C@H](O)c2ncccc21)c1ccc(F)cc1Cl [Example 239, (5S,8S)-N-((S)-1-(2-chloro-4-fluorophenyl)ethyl)-5-fluoro-8-hydroxy-5,6,7,8-tetrahydroquinoline-5-carboxamide]
< 1000 nM	101 to 300 nM	O=C(NCc1ccc(F)c(Cl)c1F)[C@]1(F)CC[C@@](O)(CO)c2ncccc21 [Example 323, (5S,8S)-N-(3-chloro-2,4-difluorobenzyl)-5-fluoro-8-hydroxy-8-(hydroxymethyl)-5,6,7,8-tetrahydroquinoline-5-carboxamide]
< 1000 nM	< 50 nM	CO[C@H]1CC[C@@](F)(C(=O)NCc2ccc(F)cc2Cl)c2cccnc21 [Example 337, (5S,8S)-N-(2-chloro-4-fluorobenzyl)-5-fluoro-8-methoxy-5,6,7,8-tetrahydroquinoline-5-carboxamide]
< 1000 nM	101 to 300 nM	O=C(NCc1ccc(Cl)cc1Cl)[C@@]1(F)CC[C@](O)(CO)c2ncccc21 [Example 302, (5R,8R)-N-(2,4-dichlorobenzyl)-5-fluoro-8-hydroxy-8-(hydroxymethyl)-5,6,7,8-tetrahydroquinoline-5-carboxamide]
< 1000 nM	< 50 nM	CO[C@@H]1CC[C@@](F)(C(=O)NCc2c(Cl)cc(Cl)cc2CO)c2cccnc21 [Example 334, (5S,8R)-N-(2,4-dichloro-6-(hydroxymethyl)benzyl)-5-fluoro-8-methoxy-5,6,7,8-tetrahydroquinoline-5-carboxamide]
< 1000 nM	< 50 nM	O=C(NCc1ccc(Cl)cc1Cl)[C@]1(F)CC[C@](O)(CO)c2ncccc21 [Example 305, (5S,8R)-N-(2,4-dichlorobenzyl)-5-fluoro-8-hydroxy-8-(hydroxymethyl)-5,6,7,8-tetrahydroquinoline-5-carboxamide]
< 1000 nM	< 50 nM	CN(CCO)C[C@]1(O)CC[C@@](F)(C(=O)NCc2ccc(Cl)cc2Cl)c2cccnc21 [Example 277, (5S,8R)-N-(2,4-dichlorobenzyl)-5-fluoro-8-hydroxy-8-(((2-hydroxyethyl) (methyl)amino)methyl)-5,6,7,8-tetrahydroquinoline-5-carboxamide]
< 1000 nM	1000 to 3000 nM	O=C(NCc1ccc(Cl)cc1F)[C@]1(F)CC[C@](O)(CO)c2ncccc21 [Example 315, (5S,8R)-N-(4-chloro-2-fluorobenzyl)-5-fluoro-8-hydroxy-8-(hydroxymethyl)-5,6,7,8-tetrahydroquinoline-5-carboxamide]
< 1000 nM	< 50 nM	CO[C@H]1CC[C@@](F)(C(=O)NCc2ccc(C(F)(F)F)cc2Cl)c2cccnc21 [Example 338, (5S,8S)-N-(2-chloro-4-(trifluoromethyl)benzyl)-5-fluoro-8-methoxy-5,6,7,8-tetrahydroquinoline-5-carboxamide]
< 1000 nM	< 50 nM	CO[C@H]1CC[C@@](F)(C(=O)NCc2ccc(Cl)cc2F)c2cccnc21 [Example 340, (5S,8S)-N-(4-chloro-2-fluorobenzyl)-5-fluoro-8-methoxy-5,6,7,8-tetrahydroquinoline-5-carboxamide]
< 1000 nM	< 50 nM	O=C(NCc1cccc(C(F)(F)F)c1Cl)[C@@]1(F)CC[C@H](F)c2ncccc21 [Example 352, (5R,8S)-N-(2-chloro-3-(trifluoromethyl)benzyl)-5,8-difluoro-5,6,7,8-tetrahydroquinoline-5-carboxamide]

The next lines start with the compound.

Structure (SMILES)	IC50 (rat P2X7)	IC50 (human P2X7)
O=C(NCc1ccccc1C(F)(F)F)[C@]1(F)CC[C@H](O)c2ncccc21 [Example 199, (5S,8S)-5-fluoro-8-hydroxy-N-(2-(trifluoromethyl)benzyl)-5,6,7,8-tetrahydroquinoline-5-carboxamide]	< 1000 nM	50 to 100 nM
CN(CCO)C[C@]1(O)CC[C@@](F)(C(=O)NCc2ccc(F)cc2Cl)c2cccnc21 (relative stereo) [Example 57, (5S*,8R*)-N-(2-chloro-4-fluorobenzyl)-5-fluoro-8-hydroxy-8-(((2-hydroxyethyl)(meth-yl)amino)methyl)-5,6,7,8-tetrahydroquinoline-5-carboxamide]	< 1000 nM	< 50 nM
O=C(NC1CCOc2cc(Cl)cc(Cl)c21)[C@]1(F)CC[C@H](O)c2ncccc21 (stereo partly drawn) [Example 230, (5S,8S)-N-(5,7-dichlorochroman-4-yl)-5-fluoro-8-hydroxy-5,6,7,8-tetrahydroquinoline-5-carboxamide]	< 1000 nM	< 50 nM
O=C(NCc1ccc(F)cc1Cl)[C@]1(F)CC[C@H](O)c2ncccc21 [Example 135, (5S,8S)-N-(2-chloro-4-fluorobenzyl)-5-fluoro-8-hydroxy-5,6,7,8-tetrahydroquinoline-5-carboxamide]	< 1000 nM	< 50 nM
O=C(NCc1ccc(Cl)cc1Cl)C1(F)CCC(O)(CO)c2ncccc21 (centres unmarked) [Example 37, N-(2,4-dichlorobenzyl)-5-fluoro-8-hy-droxy-8-(hydroxymethyl)-5,6,7,8-tetra-hydroquinoline-5-carboxamide]	< 1000 nM	< 50 nM
O=C(NCc1ccc(Cl)cc1F)[C@]1(F)CC[C@@H](O)c2ncccc21 [Example 111, (5S,8R)-N-(4-chloro-2-fluorobenzyl)-5-fluoro-8-hydroxy-5,6,7,8-tetrahydroquinoline-5-carboxamide]	< 1000 nM	301 to 1000 nM
O=C(NCc1c(Cl)cc(Cl)cc1CO)C1(F)CCC(O)c2ncccc21 (centres unmarked) [Example 20, N-(2,4-dichloro-6-(hydroxymethyl)benzyl)-5-fluoro-8-hydroxy-5,6,7,8-tetrahydro quinoline-5-carboxamide]	< 1000 nM	< 50 nM
O=C(NCc1ccc(Br)cc1Cl)[C@]1(F)CC[C@@H](O)c2ncccc21 [Example 118, (5S,8R)-N-(4-bromo-2-chlorobenzyl)-5-fluoro-8-hydroxy-5,6,7,8-tetrahydroquinoline-5-carboxamide]	< 1000 nM	< 50 nM
NCC1(O)CCC(F)(C(=O)NCc2cccc(C(F)(F)F)c2Cl)c2cccnc21 (centres unmarked) [Example 48, 8-(aminomethyl)-N-(2-chloro-3-(trifluoro-methyl)benzyl)-5-fluoro-8-hy-droxy-5,6,7,8-tetra-hydroquinoline-5-carboxamide]	< 1000 nM	< 50 nM
O=C(NCc1ccc(F)cc1C(F)(F)F)[C@@H]1CC[C@H](O)c2ncccc21 [Example 76, (5R,8S)-N-(4-fluoro-2-(tri-fluromethyl)benzyl)-8-hydroxy-5,6,7,8-tetra-hydroquinoline-5-carboxamide]	< 1000 nM	50 to 100 nM
O=C(NCc1cccc(C(F)(F)F)c1Cl)[C@@]1(F)CC[C@@H](O)c2ncccc21 [Example 128, (5R,8R)-N-(2-chloro-3-(trifluoromethyl)benzyl)-5-fluoro-8-hydroxy-5,6,7,8-tetrahydroquinoline-5-carboxamide]	< 1000 nM	< 50 nM
C[C@H](NC(=O)[C@]1(F)CC[C@H](O)c2ncccc21)c1ccc(Cl)c(Cl)c1Cl [Example 168, (5S,8S)-5-fluoro-8-hydroxy-N-((S)-1-(2,3,4-trichlorophenyl)ethyl)-5,6,7,8-tetrahydroquinoline-5-carboxamide]	< 1000 nM	101 to 300 nM
CC(CNC(=O)[C@]1(F)CC[C@H](O)c2ncccc21)c1ccc(Cl)cc1 (stereo partly drawn) [Example 234, (5S,8S)-N-(2-(4-chlorophenyl)propyl)-5-fluoro-8-hydroxy-5,6,7,8-tetrahydroquinoline-5-carboxamide]	< 1000 nM	301 to 1000 nM
O=C(NCc1cccc(F)c1F)[C@]1(F)CC[C@H](O)c2ncccc21 [Example 208, (5S,8S)-N-(2,3-difluorobenzyl)-5-fluoro-8-hydroxy-5,6,7,8-tetrahydroquinoline-5-carboxamide]	< 1000 nM	101 to 300 nM
O=C(NCc1ccc(Cl)cc1Cl)C1(F)CCC(O)c2ncccc21 (centres unmarked) [Example 22, N-(2,4-dichlorobenzyl)-5-fluoro-8-hydroxy-5,6,7,8-tetrahydroquinoline-5-carboxamide]	< 1000 nM	< 50 nM
O=C(NCc1c(F)cc(F)cc1Cl)[C@]1(F)CC[C@H](O)c2ncccc21 [Example 176, (5S,8S)-N-(2-chloro-4,6-difluorobenzyl)-5-fluoro-8-hydroxy-5,6,7,8-tetrahydroquinoline-5-carboxamide]	< 1000 nM	< 50 nM
O=C(NCc1c(Cl)ccc(Cl)c1Cl)[C@]1(F)CC[C@H](O)c2ncccc21 [Example 165, (5S,8S)-5-fluoro-8-hydroxy-N-(2,3,6-trichlorobenzyl)-5,6,7,8-tetrahydroquinoline-5-carboxamide]	< 1000 nM	< 50 nM
O=C(NCc1ccc(Br)cc1Cl)[C@]1(F)CC[C@H](O)c2ncccc21 [Example 154, (5S,8S)-N-(4-bromo-2-chlorobenzyl)-5-fluoro-8-hydroxy-5,6,7,8-tetrahydroquinoline-5-carboxamide]	< 1000 nM	< 50 nM
O=C1COC[C@]2(CC[C@@](F)(C(=O)NCc3ccc(Cl)cc3Cl)c3cccnc32)N1 (relative stereo) [Example 61, (3R*,5′S*)-N-(2,4-dichlorobenzyl)-5′-fluoro-5-oxo-6′,7′-dihydro-5′H-spiro[morpholine-3,8′-quinoline]-5′-carboxamide]	< 1000 nM	< 50 nM
O=C(NCc1c(F)ccc(F)c1Cl)[C@]1(F)CC[C@H](O)c2ncccc21 [Example 170, (5S,8S)-N-(2-chloro-3,6-difluorobenzyl)-5-fluoro-8-hydroxy-5,6,7,8-tetrahydroquinoline-5-carboxamide]	< 1000 nM	< 50 nM
